# Test results: publication PMC8765781, “A platform of assays for the discovery of anti-Zika small-molecules with activity in a 3D-bioprinted outer-blood-retina model” (PLoS ONE, 2022)
# Where two headings read alike, the source gives them in different places.
# What was measured:
# [1] = test system: ZIKV-RLuc (Cambodian strain FSS13025); experiment: microbe, parasite or virus in culture; type: cell-based, Zika virus
# [2] = Zika virus, Vero, read-out: Log AC50 (M) (converted)
SMILES,CC-v2 (curve class classification v2 of the dose response curve) [1],Efficacy (difference between neutral response and maximum compound response) [1],Max Resp (difference between neutral response and compound response for highest compound concentration) [1],"AC50 ([1]; Zika virus, Vero)","AC50 [1, 2]",AC50 (Vero cells),Log AC50 (M) (Vero cells),AC50 [1],Log AC50 (M) [1],Curve class [1],Efficacy [1],"Emax ([1]; Zika virus, Vero, read-out: Max response)",Efficacy (difference between neutral response and maximum compound response) (Vero cells),Max Resp (difference between neutral response and compound response for highest compound concentration) (Vero cells)
COC(=O)[C@]12CCC(C)(C)C[C@H]1[C@H]1C(=O)C=C3[C@@]4(C)C=C(C#N)C(=O)C(C)(C)[C@@H]4CC[C@@]3(C)[C@]1(C)CC2 [NCGC00186460-02],-1.1,-99.409,-99.593,3.69e-07 M,3.69e-07 M,0.369 µM,-6.4327 M,–,–,–,–,–,–,–
NC1(c2ccc(-c3nc4ccn5c(=O)[nH]nc5c4cc3-c3ccccc3)cc2)CCC1 [NCGC00186465-01],-2.1,-117.339,-99.979,1.85e-05 M,1.85e-05 M,18.5 µM,-4.7327 M,–,–,–,–,–,–,–
NC1(c2ccc(-c3nc4ccn5c(=O)[nH]nc5c4cc3-c3ccccc3)cc2)CCC1 [NCGC00186465-04],-2.1,-108.058,-98.999,–,–,–,-4.6827 M,2.08e-05 M,-4.6827,–,–,–,–,–
C=CC(=O)N1CCC[C@@H](n2nc(-c3ccc(Oc4ccccc4)cc3)c3c(N)ncnc32)C1 [NCGC00187912-02],–,-91.422,-83.345,9.28e-06 M,9.27e-06 M,9.28 µM,-5.0327 M,–,–,–,–,–,–,–
O=C(NCc1ccccc1)c1csc(Nc2ccncn2)n1 [NCGC00187983-01],-2.1,-99.244,-100.568,1.47e-05 M,1.47e-05 M,14.7 µM,-4.8327 M,–,–,–,–,–,–,–
CC(NCc1ccc2c(c1)[nH]/c(=N\C(=O)c1ccc(-c3cn[nH]c3)s1)n2CC(C)(C)O)C(C)(C)C (centres unmarked) [NCGC00188382-05],-1.1,-97.056,-99.599,1.47e-06 M,1.47e-06 M,1.47 µM,-5.8327 M,–,–,–,–,–,–,–
ClC1=C(Cl)[C@]2(Cl)[C@@H]3[C@@H]4C[C@@H]([C@H]5O[C@@H]45)[C@@H]3[C@@]1(Cl)C2(Cl)Cl [NCGC00244579-01],-3,-117.983,-96.11,7.59e-05 M,7.59e-05 M,75.9 µM,-4.1199 M,–,–,–,–,–,–,–
CC(=O)O/N=C1\C(=O)N(Cc2cc(Cl)ccc2Cl)c2ccc(Cl)cc21 [NCGC00247668-01],-2.1,-136.639,-99.757,1.65e-05 M,1.65e-05 M,16.5 µM,-4.7827 M,–,–,–,–,–,–,–
N=c1c2c(-c3ccccc3)c(-c3ccccc3)n(Cc3ccccc3)c2ncn1C1CCC(O)CC1 (centres unmarked) [NCGC00247785-05],-1.1,-97.244,-99.645,4.96e-06 M,4.96e-06 M,4.96 µM,-5.3045 M,–,–,–,–,–,–,–
COc1c(C)cnc(Cn2cnc3c(Cl)nc(N)nc32)c1C [NCGC00247877-01],-1.2,-34.341,-31.198,1.85e-07 M,1.85e-07 M,0.185 µM,-6.7327 M,–,–,–,–,–,–,–
CCNC(=O)c1noc(-c2cc(C(C)C)c(O)cc2O)c1-c1ccc(CN2CCOCC2)cc1 [NCGC00247878-08],-2.3,-68.402,-90.15,3.69e-05 M,3.69e-05 M,36.9 µM,-4.4327 M,–,–,–,–,–,–,–
CCNC(=O)c1cc2c(-c3cc(OCCN4CCCC4)c(Cl)cc3Cl)nc(N)nc2s1 [NCGC00247879-01],–,–,–,–,–,–,–,–,–,4,-14.131,2.04%,-14.131,2.045
